Reference: US5502214A, “1,2-benzoquinones and methods for making and using same” (priority 1993, dated 1996)
Read-outs that look alike come from different tables or passages of the source.

Assays:
[1] = tested on: EMT-6 mouse mammary tumor cells; test: In vitro cytotoxicity screen (colony formation); assay type: cell-based; conditions: 1 hour drug exposure at 37° C., EMT-6 colony formation
Description: Cell Line and Culture. The cell line used in the screen was EMT-6 mouse mammary tumor cells in culture that were maintained in exponential growth in Waymouth's medium (I.S.I. Corp., Chicago, Ill.), supplemented with 15% newborn calf serum, penicillin (100 units/ml), and streptomycin (100 μg/ml) (Grand Island Biological Co., Grand Island, N.Y.). The doubling time of these cultures, growing at 37° C. in a 5% CO2 /95% air atmosphere, was 16-19 hours. In vitro plating efficiencies of control cultures were 65-80%.
Production of Hypoxia. To produce hypoxia, plastic flasks, containing exponentially growing monolayers of tumor cells in complete medium plus serum, were fitted with sterile rubber septums and exposed to a continuously flowing 95% N2 /5% CO2 humidified atmosphere for 4 hours at 37° C. as described by B. A. Teicher et al., Int. J. Radiat. Oncol. Biol. Phy., 11:937-940 (1985); and B. A. Teicher et al., Cancer Res., 41:73-81 (1981). Parallel flasks were maintained in 95% air/5% CO2. At the end of 4 hours, the drug specified in Table I below was added to the flasks by injection through the rubber septum without disturbing the hypoxia. […]
Drug Treatments. Exponentially growing cells were exposed to varying concentrations of the drugs specified in Table I below for 1 hour at 37° C. Non-drug-treated controls were handled identically. Drugs were prepared in sterile phosphate-buffered saline immediately before use and added to the cells in a small volume (50-100 μl). […] After treatment, the medium was removed, and the cultures were washed twice with phosphate buffered saline and suspended by trypsinization.
Cell Viability Measurements. Cell viability was measured by the ability of single cells to form colonies in vitro, as described by B. A. Teicher et al., Int. J. Radiat. Oncol. Biol. Phys., 11:937-940 (1985); and B. A. Teicher et al., Cancer Res., 41:73-81 (1981). Following treatment, suspensions of known cell numbers were plated in plastic Petri dishes and allowed to grow in a 37° C. incubator under standard culture conditions for 8-10 days. After this time interval, macroscopic colonies were stained with crystal violet in methanol containing 3.7% formaldehyde and were counted manually. Each experiment was repeated 3 times and each data point per experiment represents the results of 3 different dilutions of cells plated in triplicate.

L1210 leukemia = test: In vivo antitumor test, L1210 leukemia implanted i.p. in DBA mice; conditions: for SURVIVAL: lifespan post tumor cell inoculation; for % ILS: vs untreated controls
Description: L1210 leukemia (10^6) cells were implanted intraperitoneally in DBA mice (Taconic Farms, Germantown, N.Y.) on day 0. Treatment with each drug was carried out daily for 5 days. The drugs were administered intraperitoneally at the doses shown on Table II below. Each treatment group had six animals and the experiment was carried out twice. The percent increase-in-lifespan (% ILS) is for the treated subjects compared with the untreated controls.
^a Drugs were administered i.p. daily on days 1-5.
^b Lifespan of the animals post tumor cell innoculation.

[2] = Mus musculus, EMT6, 1 h, Hypoxia, read-out: IC50
[3] = Mus musculus, EMT6, 1 h, Normal oxygenation, read-out: IC50
[4] = Mus musculus, EMT6, Normal oxygenation, read-out: IC90
[5] = 1.00 mg/kg i.p. daily on days 1-5
[6] = 2.50 mg/kg i.p. daily on days 1-5
[7] = 5.00 mg/kg i.p. daily on days 1-5
[8] = 10.00 mg/kg i.p. daily on days 1-5
[9] = Mus musculus, EMT6, 1 h, Hypoxia
[10] = Mus musculus, EMT6, 1 h, Normal oxygenation
[11] = 0.50 mg/kg i.p. daily on days 1-5
[12] = 1.25 mg/kg i.p. daily on days 1-5
[13] = 1.50 mg/kg i.p. daily on days 1-5
[14] = 2.00 mg/kg i.p. daily on days 1-5

SMILES	IC90 ([1]; Hypoxia, read-out: IC90) [µM]	IC50 [1, 2] [µM]	IC50 [1, 3] [µM]	IC90 [1, 4] [µM]	SURVIVAL (L1210 leukemia; [5]) [days]	% ILS (L1210 leukemia; [5]) [%]	SURVIVAL (L1210 leukemia; [6]) [days]	% ILS (L1210 leukemia; [6])	SURVIVAL (L1210 leukemia; [7]) [days]	% ILS (L1210 leukemia; [7]) [%]	SURVIVAL (L1210 leukemia; [8]) [days]	% ILS (L1210 leukemia; [8])	other results
O=C1C=C(N2CCCC2)C(N2CCCC2)=CC1=O [4,5-Pyrrolidinyl-1,2-Benzoquinone, 4,5-pyrrolidinyl-1,2-benzoquinone]	> 500	> 500	> 500	> 500	8.0	8	8.0	8%	7.6	3	6.3	toxic	
COC1=CC(=O)C(=O)C=C1OC [4,5-Methoxy-1,2-Benzoquinone, 4,5-Dimethoxy-1,2-benzoquinone, reference compound]	> 500	> 500	500	> 500									
CCOC(=O)NC1=C(N2CC2)C(=O)C(NC(=O)OCC)=C(N2CC2)C1=O [AZQ, 3,6-bis(ethylcarboxyamino)-2,5-diaziridinyl-1,4-benzoquinone, reference compound]		7.5	5										IC90 ([1]; Mus musculus, EMT6, 1 h, Hypoxia, read-out: IC90): 17.5 µM; IC90 ([1]; Mus musculus, EMT6, 1 h, Normal oxygenation, read-out: IC90): 15.5 µM
O=C1C=C(N2CCC2)C(N2CCC2)=CC1=O [4,5-Azetidinyl-1,2-Benzoquinone, 4,5-azetidinyl-1,2-benzoquinone]	> 500	400	500	> 500	8.0	8	7.8	5%	7.8	5	6.4	toxic	
O=C1C=C(N2CC2)C(N2CC2)=CC1=O [4,5-Aziridinyl-1,2-Benzoquinone, 4,5-aziridinyl-1,2-benzoquinone]					13.4	81	6.0	toxic					IC50 [1, 9]: 0.2 µM; IC90 [1, 9]: 1 µM; IC50 [1, 10]: 0.4 µM; IC90 [1, 10]: 1.1 µM; SURVIVAL (L1210 leukemia; [11]): 12.6 days; % ILS (L1210 leukemia; [11]): 70%; SURVIVAL (L1210 leukemia; [12]): 13.6 days; % ILS (L1210 leukemia; [12]): 84%; SURVIVAL (L1210 leukemia; [13]): 13.8 days; % ILS (L1210 leukemia; [13]): 86%; SURVIVAL (L1210 leukemia; [14]): 11.8 days; % ILS (L1210 leukemia; [14]): 59%
CCN(CC)C1=CC(=O)C(=O)C=C1N(CC)CC [4,5-bis-(Diethylamino)-1,2-Benzoquinone, 4,5-bis-(diethylamino)-1,2-benzoquinone]	> 500	400	500	> 500	7.8	5	8.4	14%	8.6	16	7.8	5%	
COC1=CC(=O)C(=O)C=C1NCCCl [4-chloroethylamino-5-methoxy-1,2-benzoquinone]													IC50 [1, 9]: 110 µM; IC90 [1, 9]: 190 µM; IC50 [1, 10]: 125 µM; IC90 [1, 10]: 455 µM
